From ChEMBL document CHEMBL1149535, “2-Arylimino-5,6-dihydro-4H-1,3-thiazines as a new class of cannabinoid receptor agonists. Part 2: orally bioavailable compounds” (Bioorg Med Chem Lett, 2007) come the findings set out here.

Series [1] has as its target Cannabinoid receptor 2 (Homo sapiens, UniProt P34972). As to the kind of experiment: Binding affinity to human CB2 receptor.
Series [2] concerns the target Cannabinoid receptor 1 (Homo sapiens, UniProt P21554). Briefly: Binding affinity to human CB1 receptor.
Series [3] in a line: Total clearance in rat at 0.5 mg/kg, iv and 1 mg/kg, po. The series is classed as ADME, organism-based. The note with it: in vivo.
Series [4] is described as follows: Oral bioavailability in rat at 1 mg/kg. To be noted: in vivo. The series is classed as ADME, organism-based.
The target in series [5] is Cannabinoid receptor 2 (Mus musculus, UniProt P47936). As to the kind of experiment: Binding affinity to mouse CB2 receptor.
Cannabinoid receptor 2 (Mus musculus, UniProt P47936), sequence (P47936 whole entry): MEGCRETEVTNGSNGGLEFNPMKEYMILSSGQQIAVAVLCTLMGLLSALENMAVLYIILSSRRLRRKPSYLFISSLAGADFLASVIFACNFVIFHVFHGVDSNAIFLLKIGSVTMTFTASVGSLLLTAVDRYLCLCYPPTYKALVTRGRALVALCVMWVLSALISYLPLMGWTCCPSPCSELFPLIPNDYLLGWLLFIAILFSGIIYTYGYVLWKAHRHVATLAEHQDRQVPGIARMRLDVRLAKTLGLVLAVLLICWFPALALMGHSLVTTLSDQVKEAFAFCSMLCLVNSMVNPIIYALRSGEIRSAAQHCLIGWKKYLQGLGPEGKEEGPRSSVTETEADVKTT
The target in series [6] is Cannabinoid receptor 1 (Mus musculus, UniProt P47746). As to the kind of experiment: Binding affinity to mouse CB1 receptor.
Cannabinoid receptor 1 (Mus musculus, UniProt P47746), sequence (P47746 whole entry): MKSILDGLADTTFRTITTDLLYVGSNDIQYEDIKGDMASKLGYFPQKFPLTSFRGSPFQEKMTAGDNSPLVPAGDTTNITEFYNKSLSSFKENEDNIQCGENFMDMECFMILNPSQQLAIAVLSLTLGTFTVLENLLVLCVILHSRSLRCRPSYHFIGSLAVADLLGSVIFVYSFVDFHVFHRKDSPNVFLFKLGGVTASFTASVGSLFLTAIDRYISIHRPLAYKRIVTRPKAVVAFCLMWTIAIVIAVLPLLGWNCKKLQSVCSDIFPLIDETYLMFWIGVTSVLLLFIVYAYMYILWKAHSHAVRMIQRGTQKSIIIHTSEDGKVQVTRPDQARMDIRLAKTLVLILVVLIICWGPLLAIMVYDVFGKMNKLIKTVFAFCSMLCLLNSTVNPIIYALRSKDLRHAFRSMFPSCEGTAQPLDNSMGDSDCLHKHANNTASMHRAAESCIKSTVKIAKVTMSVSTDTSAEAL
The nature of series [7]: Half life in rat at 2 mg/kg, iv and 30 mg/kg, po. It counts as ADME, organism-based. The note with it: in vivo.
Series [8] can be described thus: Total clearance in rat at 2 mg/kg, iv and 30 mg/kg, po. The note with it: in vivo. It counts as ADME, organism-based.
Series [9] in a line: AUC in rat at 30 mg/kg, po. The series is classed as ADME, organism-based. The note with it: plasma. Details: dose 30 mg/kg, route oral.
A short description of series [10]: Oral bioavailability in rat at 30 mg/kg. It counts as ADME, organism-based. To be noted: in vivo.
Series [11] has as its system Mus musculus. Briefly: Analgesic activity against formalin-induced acute pain in iv dosed mouse. The series is classed as functional.
Series [12] deals with Mus musculus. As to the kind of experiment: Analgesic activity against formalin-induced inflammatory pain in iv dosed mouse. The series is classed as functional.
For series [13], the system named is Mus musculus. As to the kind of experiment: Analgesic activity against formalin-induced acute pain in po dosed mouse. It counts as functional.
Series [14] has as its system Mus musculus. Briefly: Analgesic activity against formalin-induced inflammatory pain in po dosed mouse. The series is classed as functional.

Cannabinoid receptor 2 (Homo sapiens, UniProt P34972), sequence (P34972 whole entry): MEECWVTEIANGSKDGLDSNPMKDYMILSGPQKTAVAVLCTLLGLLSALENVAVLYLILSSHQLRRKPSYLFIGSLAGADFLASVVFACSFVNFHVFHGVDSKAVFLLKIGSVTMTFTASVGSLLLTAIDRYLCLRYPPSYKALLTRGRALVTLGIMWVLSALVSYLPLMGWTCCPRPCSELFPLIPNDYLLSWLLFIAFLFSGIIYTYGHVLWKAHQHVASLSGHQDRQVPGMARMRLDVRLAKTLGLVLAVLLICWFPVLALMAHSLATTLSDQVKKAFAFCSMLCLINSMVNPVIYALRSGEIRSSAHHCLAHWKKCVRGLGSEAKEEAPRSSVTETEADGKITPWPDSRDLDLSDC
Cannabinoid receptor 1 (Homo sapiens, UniProt P21554), sequence (P21554 whole entry): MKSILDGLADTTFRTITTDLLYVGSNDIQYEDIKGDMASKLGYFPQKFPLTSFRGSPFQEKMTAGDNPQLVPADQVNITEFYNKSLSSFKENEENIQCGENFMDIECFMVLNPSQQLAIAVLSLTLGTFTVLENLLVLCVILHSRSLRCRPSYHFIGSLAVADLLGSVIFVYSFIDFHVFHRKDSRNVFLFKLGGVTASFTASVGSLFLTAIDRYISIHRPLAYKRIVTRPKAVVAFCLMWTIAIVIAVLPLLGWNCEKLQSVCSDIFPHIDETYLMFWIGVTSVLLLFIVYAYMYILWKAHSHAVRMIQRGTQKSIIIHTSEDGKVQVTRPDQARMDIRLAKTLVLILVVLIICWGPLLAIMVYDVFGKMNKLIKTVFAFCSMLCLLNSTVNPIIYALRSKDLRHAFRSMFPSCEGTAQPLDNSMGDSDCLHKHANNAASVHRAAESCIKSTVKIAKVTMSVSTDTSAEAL

For `CSC(=S)N1CC2(CCCCC2)CS/C1=N\c1cccc(C(C)C)c1`, the figures for the Ki on Cannabinoid receptor 2 [1] and on Cannabinoid receptor 1 [2] were 2.5 nM and 100 nM, respectively.
Consider `COc1ccccc1/N=C1\SCC2(CCCCC2)CN1C(=S)SC`, for which the Ki on Cannabinoid receptor 2 [1] was found to be 1.1 nM; on Cannabinoid receptor 1 [2] it was 13 nM. The compound further had a clearance in [3] of 75.9 mL/min/kg. In series [4], the bioavailability was determined as 0.4%.
Taken in the same sequence, the figures for `COc1cccc(/N=C2\SCC3(CCCCC3)CN2C(=S)SC)c1` were 1 nM, 108 nM, 45.1 mL/min/kg and 13%.
With `COc1ccc(/N=C2\SCC3(CCCCC3)CN2C(=S)SC)cc1`, the Ki on Cannabinoid receptor 2 [1] was determined as 3.8 nM; at Cannabinoid receptor 1 [2], 671 nM.
Taken in the same sequence, the figures for `CCCc1ccc(/N=C2\SCC3(CCCCC3)CN2C(=S)SC)cc1` were 7 nM and 514 nM.
In the same order, the values of `CSC(=S)N1CC2(CCCCC2)CS/C1=N\c1ccc(C(F)(F)F)cc1` are 18 nM and 1730 nM.
In the case of `CSC(=S)N1CC2(CCCCC2)CS/C1=N\c1cccc2c1CCCC2`, the Ki worked out at 0.2 nM at Cannabinoid receptor 2 [1], 15 nM at Cannabinoid receptor 1 [2], 0.7 nM at Cannabinoid receptor 2 [5] and 6 nM at Cannabinoid receptor 1 [6]. The figures for the clearance in series [3] and in series [8] were 19.1 mL/min/kg and 23.3 mL/min/kg, respectively. Also, the bioavailability in series [4] worked out at 44%; in [10] it was 7%. Besides, the half-life in [7] is 4.1 h. The compound also gave an AUC in series [9] of 1500 ng·h/mL. Also, the ED50 worked out at 0.3 mg/kg in the series with Mus musculus [11], 0.2 mg/kg with Mus musculus [12], 2.5 mg/kg in the series on Mus musculus [13] and 4 mg/kg with Mus musculus [14].
On to `CSC(=S)N1CC2(CCCCC2)CS/C1=N\c1ccc2c(c1)CCCC2`, for which the Ki worked out at 24 nM at Cannabinoid receptor 2 [1] and 396 nM on Cannabinoid receptor 1 [2].
For the compound `CSC(=S)N1CC2(CCCCC2)CS/C1=N\c1ccc(OC(F)(F)F)cc1`, the Ki is 6 nM on Cannabinoid receptor 2 [1], 1500 nM on Cannabinoid receptor 1 [2], 7 nM at Cannabinoid receptor 2 [5] and 1210 nM at Cannabinoid receptor 1 [6]. Besides, the values for the clearance in [3] and in series [8] were 7.4 mL/min/kg and 25.9 mL/min/kg, respectively. The figures for the bioavailability in [4] and in series [10] were 24% and 20%, respectively. Moreover, in series [7], the half-life was 2.4 h. The compound also gave an AUC in series [9] of 3900 ng·h/mL. For the same compound, the ED50 with Mus musculus [11] is greater than 20 mg/kg; in the series on Mus musculus [12] it was greater than 20 mg/kg; in the series on Mus musculus [13], greater than 100 mg/kg; with Mus musculus [14], greater than 100 mg/kg.
On to `CCOc1ccccc1/N=C1\SCC2(CCCCC2)CN1C(=S)SC`, for which the Ki on Cannabinoid receptor 2 [1] amounted to 6.3 nM; at Cannabinoid receptor 1 [2], 358 nM.
As for `CSC(=S)N1CC2(CCCCC2)CS/C1=N\c1ccccc1C(F)(F)F`, the Ki on Cannabinoid receptor 2 [1] came to 1.1 nM; at Cannabinoid receptor 1 [2] it was 418 nM.
In the case of `CSC(=S)N1CC2(CCCCC2)CS/C1=N\c1cccc(C)c1C`, the values for the Ki on Cannabinoid receptor 2 [1] and on Cannabinoid receptor 1 [2] were 1 nM and 114 nM, respectively.
As to `CSC(=S)N1CC2(CCCCC2)CS/C1=N\c1cccc2ccccc12`, the Ki on Cannabinoid receptor 2 [1] was 6 nM; on Cannabinoid receptor 1 [2], 30 nM; at Cannabinoid receptor 2 [5], 4 nM; on Cannabinoid receptor 1 [6], 6.8 nM. In addition, the clearance in [3] stood at 17.7 mL/min/kg; in series [8] it was 30.1 mL/min/kg. Also, the bioavailability amounted to 53% in series [4] and 36% in series [10]. Besides, the half-life in series [7] is 1.5 h. In series [9], this compound gave an AUC of 6100 ng·h/mL. Also, the ED50 in the series with Mus musculus [11] was determined as 0.4 mg/kg; with Mus musculus [12], 0.4 mg/kg; with Mus musculus [13], 1.5 mg/kg; in the series with Mus musculus [14], 1 mg/kg.
For `CSC(=S)N1CC2(CCCCC2)CS/C1=N\c1cccc2nsnc12`, the Ki is 1.3 nM at Cannabinoid receptor 2 [1] and 44 nM at Cannabinoid receptor 1 [2]. Moreover, in series [3], the clearance was determined as 60.4 mL/min/kg.
For the compound `CSC(=S)N1CC2(CCCCC2)CS/C1=N\c1cccc2nonc12`, the inhibitory constant (Ki) at Cannabinoid receptor 2 [1] amounted to 0.9 nM; on Cannabinoid receptor 1 [2] it was 246 nM.
On Cannabinoid receptor 1 [2], `CSC(=S)N1CC(C)(C)CS/C1=N\c1ccccc1C(C)C` came in with a Ki greater than 5000 nM. This compound also yielded a clearance in series [3] of 63.4 mL/min/kg. For the same compound, the bioavailability in series [4] stood at 10%.
Regarding `CSC(=S)N1CC2(CC2)CS/C1=N\c1ccccc1C(C)C`, affinity at Cannabinoid receptor 2 [1] was put at a Ki of 65 nM. Moreover, the clearance in series [3] was 85.1 mL/min/kg. This compound registered a bioavailability in series [4] of 14%.
With `CSC(=S)N1CC2(CCCC2)CS/C1=N\c1ccccc1C(C)C`, the Ki was found to be 1 nM on Cannabinoid receptor 2 [1] and 541 nM on Cannabinoid receptor 1 [2]. The same compound gave a clearance in [3] of 54.2 mL/min/kg. In series [4], the bioavailability was found to be 8.9%.
As for `CSC(=S)N1CC2(CCCCC2)CS/C1=N\c1cccc2c1CCCN2C`, the results for the Ki at Cannabinoid receptor 2 [1] and at Cannabinoid receptor 1 [2] were 1.1 nM and 85 nM, respectively.
Taken in the same sequence, the figures for `CSC(=S)N1CC2(CCCCC2)CS/C1=N\c1cccc2c1CCC2` were 5 nM and 243 nM.
Regarding `CCC1(CC)CS/C(=N\c2ccccc2C(C)C)N(C(=S)SC)C1`, the Ki was 9 nM on Cannabinoid receptor 2 [1] and greater than 5000 nM on Cannabinoid receptor 1 [2]. The compound further registered a clearance in series [3] of 48.3 mL/min/kg. The bioavailability in series [4] is 19%.
For the compound `CSC(=S)N1CC2(CCCCC2)CS/C1=N\c1ccc(C(C)C)cc1`, the values for the Ki on Cannabinoid receptor 2 [1] and at Cannabinoid receptor 1 [2] were 23 nM and 1260 nM, respectively.
`CCc1ccc(/N=C2\SCC3(CCCCC3)CN2C(=S)SC)cc1`: the figures for the Ki at Cannabinoid receptor 2 [1] and on Cannabinoid receptor 1 [2] were 1.2 nM and 95 nM, respectively.
In the same order, the values of `CSC(=S)N1CC2(CCCCC2)CS/C1=N\c1ccc(C#N)cc1` are 2.3 nM and 173 nM.
As to `CSC(=S)N1CC2(CCCCC2)CS/C1=N\c1ccccc1OC(F)(F)F`, the values for the Ki on Cannabinoid receptor 2 [1] and on Cannabinoid receptor 1 [2] were 12 nM and 711 nM, respectively.
`CSC(=S)N1CC2(CCCCC2)CS/C1=N\c1cccc2ncccc12`: the Ki was found to be 11 nM on Cannabinoid receptor 2 [1] and 763 nM on Cannabinoid receptor 1 [2]. In [3], this compound gave a clearance of 121 mL/min/kg. The same compound had a bioavailability in [4] of 42%.
For the compound `CSC(=S)N1CC2(CCCCC2)CS/C1=N\c1ccccc1C(C)C`, the Ki on Cannabinoid receptor 2 [1] was 0.8 nM; on Cannabinoid receptor 1 [2] it was 122 nM; at Cannabinoid receptor 2 [5], 1.2 nM; on Cannabinoid receptor 1 [6], 80 nM. Also, the clearance in series [3] stood at 18.6 mL/min/kg; in series [8] it was 38.2 mL/min/kg. The bioavailability in series [4] amounted to 32%; in series [10], 24%. This compound gave a half-life in series [7] of 2.5 h. Further, the AUC in [9] was determined as 3200 ng·h/mL. In addition, the ED50 with Mus musculus [11] amounted to 1.2 mg/kg; with Mus musculus [12], 1.1 mg/kg; in the series on Mus musculus [13], 17.5 mg/kg; with Mus musculus [14], 17.5 mg/kg.
For the compound `CCCCCc1cc(O)c2c(c1)OC(C)(C)[C@@H]1CCC(C)=C[C@@H]21` [DRONABINOL], the results for the ED50 in the series on Mus musculus [11] and in the series with Mus musculus [12] were 0.4 mg/kg and 0.3 mg/kg, respectively.
On to `CN1CC[C@]23c4c5ccc(O)c4O[C@H]2[C@@H](O)C=C[C@H]3[C@H]1C5` [MORPHINE], for which the ED50 with Mus musculus [11] is 1.1 mg/kg; in the series with Mus musculus [12], 1.1 mg/kg; in the series with Mus musculus [13], 27.3 mg/kg; with Mus musculus [14], 9.8 mg/kg.
